Test results reported in patent US10544143B2, “4-azaindole compounds” (BRISTOL-MYERS SQUIBB COMPANY, priority 2017, dated 2020).

Experiments:
human TLR7 = human TLR7 (Homo sapiens (Human), UniProt Q9NYK1); assay: TLR7 inhibition reporter assay (HEK-Blue SEAP); assay type: cell-based; conditions: HEK-Blue human TLR7 cells, gardiquimod 7.5 μM
human TLR8 = human TLR8 (Homo sapiens (Human), UniProt Q9NR97); assay: TLR8 inhibition reporter assay (HEK-Blue SEAP); conditions: read-out: TLR8 IC50; HEK-Blue human TLR8 cells, R848 15.9 μM;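 also: SEAP driven by IFN-β minimal promoter carrying NF-κB and AP-1 sites, compounds dosed 0.05 nM to 50 µM for 22 h, inhibition scaled between agonist-plus-DMSO and reference-inhibitor wells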
human TLR9 = human TLR9 (Homo sapiens (Human), UniProt Q9NR96); assay: TLR9 inhibition reporter assay (HEK-Blue SEAP); conditions: read-out: TLR9 IC50; HEK-Blue human TLR9 cells, ODN2006 5 nM;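 also: SEAP driven by an IFN-β minimal promoter with NF-κB and AP-1 sites, read after 22 h, compounds dosed 0.05 nM–50 µM, inhibition scaled between agonist plus DMSO and reference-inhibitor wells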
human TLR9, sequence (Q9NR96 26-1032): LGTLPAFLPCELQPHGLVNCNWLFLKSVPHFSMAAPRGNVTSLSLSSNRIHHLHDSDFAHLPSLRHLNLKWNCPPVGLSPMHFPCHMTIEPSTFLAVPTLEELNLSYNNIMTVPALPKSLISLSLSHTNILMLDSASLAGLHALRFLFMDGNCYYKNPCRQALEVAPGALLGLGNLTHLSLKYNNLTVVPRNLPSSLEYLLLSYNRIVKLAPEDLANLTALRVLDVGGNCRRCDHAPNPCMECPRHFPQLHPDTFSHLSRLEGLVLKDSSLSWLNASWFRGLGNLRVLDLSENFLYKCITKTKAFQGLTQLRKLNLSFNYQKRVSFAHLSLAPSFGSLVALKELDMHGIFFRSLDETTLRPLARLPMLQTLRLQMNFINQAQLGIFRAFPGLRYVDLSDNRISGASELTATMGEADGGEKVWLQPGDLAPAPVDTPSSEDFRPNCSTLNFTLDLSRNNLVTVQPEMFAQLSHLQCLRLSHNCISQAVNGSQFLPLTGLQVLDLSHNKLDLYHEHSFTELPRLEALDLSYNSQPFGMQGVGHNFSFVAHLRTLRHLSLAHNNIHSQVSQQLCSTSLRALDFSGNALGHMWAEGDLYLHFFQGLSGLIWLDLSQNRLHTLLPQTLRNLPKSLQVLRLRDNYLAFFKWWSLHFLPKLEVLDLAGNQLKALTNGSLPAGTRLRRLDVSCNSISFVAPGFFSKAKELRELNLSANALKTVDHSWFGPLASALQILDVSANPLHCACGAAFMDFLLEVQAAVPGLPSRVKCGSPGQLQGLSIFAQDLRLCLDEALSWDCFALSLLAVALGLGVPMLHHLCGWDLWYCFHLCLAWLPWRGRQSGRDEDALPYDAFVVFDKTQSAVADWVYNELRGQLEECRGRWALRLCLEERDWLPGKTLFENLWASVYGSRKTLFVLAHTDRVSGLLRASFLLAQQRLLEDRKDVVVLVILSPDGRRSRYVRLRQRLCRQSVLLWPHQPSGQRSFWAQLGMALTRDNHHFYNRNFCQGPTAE

human TLR7, sequence (Q9NYK1 27-1049): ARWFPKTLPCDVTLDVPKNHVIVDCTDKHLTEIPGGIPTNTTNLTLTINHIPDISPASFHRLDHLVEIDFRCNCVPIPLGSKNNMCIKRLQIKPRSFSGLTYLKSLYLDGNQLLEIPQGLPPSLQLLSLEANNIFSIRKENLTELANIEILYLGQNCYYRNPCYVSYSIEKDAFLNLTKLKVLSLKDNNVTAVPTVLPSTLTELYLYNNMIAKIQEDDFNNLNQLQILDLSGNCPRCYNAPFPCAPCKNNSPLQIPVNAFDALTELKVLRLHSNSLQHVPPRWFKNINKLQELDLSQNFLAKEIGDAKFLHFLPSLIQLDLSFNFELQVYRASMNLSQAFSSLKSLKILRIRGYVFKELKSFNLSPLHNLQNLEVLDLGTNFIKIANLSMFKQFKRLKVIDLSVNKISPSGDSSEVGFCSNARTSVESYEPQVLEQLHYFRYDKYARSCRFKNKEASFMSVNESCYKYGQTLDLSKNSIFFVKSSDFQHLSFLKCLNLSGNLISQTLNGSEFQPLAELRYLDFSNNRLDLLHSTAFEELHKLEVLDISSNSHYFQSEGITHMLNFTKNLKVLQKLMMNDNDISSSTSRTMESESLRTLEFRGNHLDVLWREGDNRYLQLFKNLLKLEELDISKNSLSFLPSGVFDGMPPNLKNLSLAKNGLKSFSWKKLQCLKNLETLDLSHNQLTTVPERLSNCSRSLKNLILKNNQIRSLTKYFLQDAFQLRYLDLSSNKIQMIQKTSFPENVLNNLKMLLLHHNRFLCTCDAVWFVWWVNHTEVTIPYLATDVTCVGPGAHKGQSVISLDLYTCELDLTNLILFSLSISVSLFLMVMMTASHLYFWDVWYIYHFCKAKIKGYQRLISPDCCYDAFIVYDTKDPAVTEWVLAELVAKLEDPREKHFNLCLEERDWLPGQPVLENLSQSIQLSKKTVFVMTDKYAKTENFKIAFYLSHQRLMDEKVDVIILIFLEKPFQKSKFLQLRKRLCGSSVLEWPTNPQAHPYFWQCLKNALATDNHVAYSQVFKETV
human TLR8, sequence (Q9NR97 27-1041): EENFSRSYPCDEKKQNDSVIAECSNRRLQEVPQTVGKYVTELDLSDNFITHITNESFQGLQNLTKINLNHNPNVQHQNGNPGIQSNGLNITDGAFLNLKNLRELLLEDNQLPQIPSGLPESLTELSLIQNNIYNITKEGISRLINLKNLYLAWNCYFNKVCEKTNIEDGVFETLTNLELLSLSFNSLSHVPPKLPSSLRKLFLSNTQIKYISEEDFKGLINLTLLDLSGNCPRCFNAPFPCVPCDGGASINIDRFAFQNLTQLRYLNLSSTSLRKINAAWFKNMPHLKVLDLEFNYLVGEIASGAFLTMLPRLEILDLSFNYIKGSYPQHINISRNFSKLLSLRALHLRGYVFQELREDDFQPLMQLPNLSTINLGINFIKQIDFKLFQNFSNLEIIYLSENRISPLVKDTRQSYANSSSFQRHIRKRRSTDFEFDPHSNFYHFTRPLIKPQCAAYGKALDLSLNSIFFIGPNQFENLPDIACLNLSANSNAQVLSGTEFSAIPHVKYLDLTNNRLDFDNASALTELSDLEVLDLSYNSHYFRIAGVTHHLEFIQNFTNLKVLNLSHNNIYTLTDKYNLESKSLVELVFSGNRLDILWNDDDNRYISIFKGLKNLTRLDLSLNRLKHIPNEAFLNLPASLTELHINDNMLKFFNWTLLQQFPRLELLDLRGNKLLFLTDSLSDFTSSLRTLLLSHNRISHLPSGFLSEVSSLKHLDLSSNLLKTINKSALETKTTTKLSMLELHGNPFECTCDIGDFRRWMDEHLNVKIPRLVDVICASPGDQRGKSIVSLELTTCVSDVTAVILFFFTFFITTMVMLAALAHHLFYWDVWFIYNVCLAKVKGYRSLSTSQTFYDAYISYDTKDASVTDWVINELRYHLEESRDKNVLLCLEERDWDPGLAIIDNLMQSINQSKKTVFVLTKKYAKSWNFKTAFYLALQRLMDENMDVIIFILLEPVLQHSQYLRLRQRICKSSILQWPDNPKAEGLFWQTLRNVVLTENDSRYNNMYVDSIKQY

Cc1c(-c2[nH]c3ccc(N4CC5(CN(CC(C)C)C5)C4)nc3c2C(C)C)cn2ncnc2c1C [Example 1009]
IC50 (human TLR7): 4.5 nM | IC50 (human TLR8): 7.7 nM | IC50 (human TLR9): 2660 nM

Cc1c(-c2[nH]c3ccc(N4CC5(CN(CC(C)(C)C)C5)C4)nc3c2C(C)C)cn2ncnc2c1C [Example 1010]
IC50 (human TLR7): 3.6 nM | IC50 (human TLR8): 4.7 nM | IC50 (human TLR9): 2430 nM

Cc1c(-c2[nH]c3ccc(N4CC5(C4)CN(C4COC4)C5)nc3c2C(C)C)cn2ncnc2c1C [Example 1011]
IC50 (human TLR7): 11 nM | IC50 (human TLR8): 22 nM | IC50 (human TLR9): 23700 nM

Cc1c(-c2[nH]c3ccc(N4CC5(C4)CN(C4CCOCC4)C5)nc3c2C(C)C)cn2ncnc2c1C [Example 1012]
IC50 (human TLR7): 0.59 nM | IC50 (human TLR8): 1.4 nM | IC50 (human TLR9): 1690 nM

COCCN1CC2(C1)CN(c1ccc3[nH]c(-c4cn5ncnc5c(C)c4C)c(C(C)C)c3n1)C2 [Example 1013]
IC50 (human TLR7): 11 nM | IC50 (human TLR8): 9.2 nM | IC50 (human TLR9): 7680 nM

Cc1c(-c2[nH]c3ccc(N4CC5(CN(CCC#N)C5)C4)nc3c2C(C)C)cn2ncnc2c1C [Example 1014]
IC50 (human TLR7): 21 nM | IC50 (human TLR8): 26 nM | IC50 (human TLR9): 21900 nM

CCCN1CC2(C1)CN(c1ccc3[nH]c(-c4cn5ncnc5c(C)c4C)c(C(C)C)c3n1)C2 [Example 1015]
IC50 (human TLR7): 1.3 nM | IC50 (human TLR8): 7.8 nM | IC50 (human TLR9): 2380 nM

COc1cc(-c2[nH]c3ccc(N4CC5(CNC5)C4)nc3c2C(C)C)cn2ncnc12 [Example 1016]
IC50 (human TLR7): 2.9 nM | IC50 (human TLR8): 38 nM | IC50 (human TLR9): 641 nM

COc1cc(-c2[nH]c3ccc(N4CC5(CN(C)C5)C4)nc3c2C(C)C)cn2ncnc12 [Example 1017]
IC50 (human TLR7): 1.3 nM | IC50 (human TLR8): 16 nM | IC50 (human TLR9): 3300 nM

CCN1CC2(C1)CN(c1ccc3[nH]c(-c4cc(OC)c5ncnn5c4)c(C(C)C)c3n1)C2 [Example 1018]
IC50 (human TLR7): 1.7 nM | IC50 (human TLR8): 8.9 nM | IC50 (human TLR9): 2780 nM

CCCN1CC2(C1)CN(c1ccc3[nH]c(-c4cc(OC)c5ncnn5c4)c(C(C)C)c3n1)C2 [Example 1019]
IC50 (human TLR7): 1.7 nM | IC50 (human TLR8): 16 nM | IC50 (human TLR9): 3280 nM

COc1cc(-c2[nH]c3ccc(N4CC5(C4)CN(C(C)C)C5)nc3c2C(C)C)cn2ncnc12 [Example 1020]
IC50 (human TLR7): 1.8 nM | IC50 (human TLR8): 17 nM | IC50 (human TLR9): 3860 nM

COc1cc(-c2[nH]c3ccc(N4CC5(CN(CC(C)(C)O)C5)C4)nc3c2C(C)C)cn2ncnc12 [Example 1021]
IC50 (human TLR7): 4.3 nM | IC50 (human TLR8): 11 nM | IC50 (human TLR9): 5330 nM

Cc1c(-c2[nH]c3ccc(C4CC5(C4)CN(C4CCOCC4)C5)nc3c2C(C)C)cn2ncnc2c1C [Example 1024]
IC50 (human TLR7): 1.8 nM | IC50 (human TLR8): 1.2 nM | IC50 (human TLR9): 4540 nM

Cc1c(-c2[nH]c3ccc(C4CC5(C4)CN(CC4(C)COC4)C5)nc3c2C(C)C)cn2ncnc2c1C [Example 1025]
IC50 (human TLR7): 3 nM | IC50 (human TLR8): 0.86 nM | IC50 (human TLR9): 5860 nM

Cc1c(-c2[nH]c3ccc(C4CC5(C4)CN(CCS(C)(=O)=O)C5)nc3c2C(C)C)cn2ncnc2c1C [Example 1026]
IC50 (human TLR7): 4.5 nM | IC50 (human TLR8): 6.3 nM | IC50 (human TLR9): 14500 nM

Cc1c(-c2[nH]c3ccc(C4CC5(C4)CN(CC(C)(C)O)C5)nc3c2C(C)C)cn2ncnc2c1C [Example 1028]
IC50 (human TLR7): 7.6 nM | IC50 (human TLR8): 2.1 nM | IC50 (human TLR9): 17000 nM

Cc1c(-c2[nH]c3ccc(C4CC5(C4)CN(CCC(N)=O)C5)nc3c2C(C)C)cn2ncnc2c1C [Example 1029]
IC50 (human TLR7): 1.4 nM | IC50 (human TLR8): 5 nM | IC50 (human TLR9): 8380 nM

Cc1c(-c2[nH]c3ccc(C4CC5(C4)CN(CCCS(C)(=O)=O)C5)nc3c2C(C)C)cn2ncnc2c1C [Example 1030]
IC50 (human TLR7): 3.1 nM | IC50 (human TLR8): 1.9 nM | IC50 (human TLR9): 6280 nM

COCCN1CC2(CC(c3ccc4[nH]c(-c5cn6ncnc6c(C)c5C)c(C(C)C)c4n3)C2)C1 [Example 1031]
IC50 (human TLR7): 18 nM | IC50 (human TLR8): 2 nM | IC50 (human TLR9): 12700 nM

Cc1c(-c2[nH]c3ccc(N4CCN(CCN(C)C)C(=O)C4)nc3c2C(C)C)cn2ncnc2c1C [Example 1032]
IC50 (human TLR7): 1210 nM | IC50 (human TLR8): 196 nM | IC50 (human TLR9): 25400 nM

Cc1c(-c2[nH]c3ccc(N4CCN(C(=O)CN5CC6(COC6)C5)CC4)nc3c2C(C)C)cn2ncnc2c1C [Example 1033]
IC50 (human TLR7): 1090 nM | IC50 (human TLR8): 974 nM | IC50 (human TLR9): 22400 nM

CNCCC(=O)N1C[C@H](C)N(c2ccc3[nH]c(-c4cn5ncnc5c(C)c4C)c(C(C)C)c3n2)C[C@H]1C [Example 1034]
IC50 (human TLR7): 1400 nM | IC50 (human TLR8): > 3120 nM | IC50 (human TLR9): 26600 nM

Cc1c(-c2[nH]c3ccc(C4CCC(O)(CN)CC4)nc3c2C(C)C)cn2ncnc2c1C (stereo not drawn) [Example 1035, 1-(aminomethyl)-4-(2-(7,8-dimethyl-[1,2,4]triazolo[1,5-a]pyridin-6-yl)-3-isopropyl-1H-pyrrolo[3,2-b]pyridin-5-yl)cyclohexan-1-ol]
IC50 (human TLR7): 1.7 nM | IC50 (human TLR8): 21 nM | IC50 (human TLR9): 3670 nM

CC(C)c1c(-c2cn(C)c3ncccc23)[nH]c2ccc(C3CCC(N4CC5(COC5)C4)CC3)nc12 (stereo not drawn) [Example 1036]
IC50 (human TLR7): 1.3 nM | IC50 (human TLR8): 2.7 nM | IC50 (human TLR9): 1930 nM
